From PubChem BioAssay (NCI)
Several values for one entry are separate records, joined by “and”; a condition that tells them apart may be missing. Equal values may be shown once.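 These data come from cells grown in 96-well plates and exposed to compound for 48 hours at five concentrations. Abbreviation: GI50, concentration required for 50% inhibition of growth. TGI denotes the concentration required for complete inhibition of growth.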

Legend:
Experiment in all cases: NCI anticancer screen, dose series, 48 h
MALME-3M melanoma = system: MALME-3M melanoma
OVCAR-3 ovarian = system: OVCAR-3 ovarian
RPMI-8226 leukemia = system: RPMI-8226 leukemia
SF-539 CNS = system: SF-539 CNS
SN12C renal = system: SN12C renal
A498 renal = system: A498 renal
CCRF-CEM leukemia = system: CCRF-CEM leukemia
BT-549 breast = system: BT-549 breast
HS 578T breast = system: HS 578T breast
PC-3 prostate = system: PC-3 prostate

Compound | TGI (MALME-3M melanoma) [µM] | TGI (OVCAR-3 ovarian) [µM] | TGI (RPMI-8226 leukemia) [µM] | TGI (SF-539 CNS) | TGI (SN12C renal) | TGI (A498 renal) | GI50 (CCRF-CEM leukemia) [µM] | TGI (CCRF-CEM leukemia) | GI50 (MALME-3M melanoma) [µM] | GI50 (OVCAR-3 ovarian) | GI50 (RPMI-8226 leukemia) [µM] | GI50 (SF-539 CNS) [µM] | GI50 (SN12C renal) [µM] | GI50 (A498 renal) | GI50 (BT-549 breast) | TGI (BT-549 breast) | TGI (HS 578T breast) [µM] | GI50 (PC-3 prostate) | TGI (PC-3 prostate) [µM] | GI50 (HS 578T breast) [µM]
CCCCCCCCCCCCCCCC(=O)NCC(COP(=O)([O-])OCC[N+](C)(C)C)OCC (stereo not given) | 30.8 | 18.9 | 9.76 | 29.8 µM | 25 µM |  |  |  |  |  |  |  |  |  |  |  |  |  |  | 
CCOC(=O)CC1=Nc2ccccc2SC1 | > 100 | > 100 |  | > 100 µM | > 100 µM | > 100 µM |  |  |  |  |  |  |  |  |  |  |  |  |  | 
CCCCCCCCCCCCC(=O)OC(c1cnco1)c1nc(C(O)CC(O)C(O)C(C)O)co1 (stereo not given) | > 100 | > 100 | 29.2 | > 100 µM | > 100 µM | > 100 µM | 0.838 | > 61.5 µM | 3.61 | 4.61 µM | 0.694 | 3.73 | 4.09 |  |  |  |  |  |  | 
CCc1c2c(nc3cc4c(cc13)OCO4)-c1cc3c(c(=O)n1C2)COC(=O)[C@]3(O)CC | > 100 | > 100 | 0.391 | 0.0505 µM | > 100 µM | 0.428 µM and 0.834 µM |  |  | 0.289 | 0.476 µM and 1.87 µM | 0.00315 | < 0.001 |  | 0.0097 µM and 0.0397 µM | 0.0654 µM and 0.0367 µM | 5.29 µM and 0.782 µM | > 100 | 0.277 µM and 0.122 µM | > 100 | 
CCOc1ccc(S(=O)(=O)/N=C2\C=C(SCC(=O)O)C(=O)c3ccccc32)cc1 | 3.69 | 12.2 | 13.2 | 5.39 µM | 4.97 µM | 37 µM |  |  | 2.13 | 1.88 µM | 2.05 | 2.49 | 2.15 | 21.6 µM | 4.66 µM | 15 µM | 6.79 | 2.92 µM | 13.1 | 2.6
O=C1NC2(CCCC2)C(=O)C12CCCC2 | > 100 | > 100 | > 100 | > 100 µM | > 100 µM | > 100 µM |  | > 100 µM |  |  |  |  |  |  |  |  |  |  |  | 
C[C@@H]1CC[C@H]2C(COCC3=C(C(F)(F)F)O[C@@H]4O[C@@]5(C)CC[C@H]6[C@H](C)CC[C@@H]3[C@@]46OO5)=C(C(F)(F)F)O[C@@H]3O[C@@]4(C)CC[C@@H]1[C@]32OO4 | > 100 | > 100 | > 100 | > 100 µM | > 100 µM | > 100 µM | < 0.0284 | > 100 µM | < 0.01 | 0.0365 µM | < 0.01 | < 0.01 | 0.0439 | 32.7 µM |  |  | > 100 | < 0.01 µM | > 100 | 0.152
C1COCCN1.C1COCCN1.N.N.[Cl-].[Pt+2] | > 100 | > 100 |  | > 100 µM | > 100 µM |  |  |  | > 100 | > 100 µM |  | > 100 | > 100 |  |  |  |  |  |  | 
COc1ccc(/C=C/C=C(/C#N)C(N)=S)cc1 | 99.4 | 42.7 |  | > 100 µM | > 100 µM | 56.5 µM |  |  | 26.9 | 15.5 µM |  | 34.8 | 35.4 | 25.1 µM | 30.1 µM | > 100 µM | > 100 |  |  | 62.5
O=c1cc(-c2cccc(F)c2)[nH]c2cc3c(cc12)OCO3 | > 72 |  |  | 0.301 µM and 0.247 µM | 75 µM and 23.3 µM | > 9.41 µM | 0.346 | 75 µM and > 10.8 µM |  | 0.291 µM |  | 0.133 | 0.411 |  |  | > 100 µM | 0.181 |  | > 89.5 | 
O=c1[nH]c2ccccc2cc1C(Cl)=C(Cl)Cl | > 100 | > 100 | > 100 | > 100 µM | > 100 µM | > 100 µM |  | > 100 µM |  |  |  |  |  |  |  |  |  |  |  | 
CC(C)(C)OC(=O)n1cc(CNC(=S)Nc2ccccc2)c2ccccc21 |  | 27.7 | 16.4 | 25.4 µM | 28.4 µM | 31.2 µM |  |  |  | 11.7 µM | 3.27 | 12.3 | 15.1 | 15.1 µM | 14.5 µM | 32.7 µM | 42.2 | 10.5 µM | 23 | 13.7
FC(F)(F)c1nc(-c2ccccc2Cl)[nH]c1C(F)(F)F | 2.75 | 3.68 | 25.2 | 4.48 µM | 3.14 µM |  |  | 1.6 µM |  |  |  |  |  |  |  |  |  |  |  | 
COc1cc2c(c3c1C=CCO3)C(=O)c1ccccc1C2=O | > 100 | > 100 | > 100 | > 100 µM | > 100 µM |  |  | 66.4 µM |  |  |  |  |  |  |  |  |  |  |  | 
O=C(c1ccc2ccccc2c1)c1c(C(F)(F)F)n([O-])c2cc(Cl)c(Cl)cc2[n+]1=O | 3 | 2.69 | 3.85 | 2.93 µM | 3.1 µM | 4.68 µM | 2.41 | 4.78 µM | 1.58 | 1.39 µM | 1.58 | 1.59 | 1.73 | 1.96 µM | 1.48 µM | 2.8 µM | 4.15 |  |  | 1.85
Cc1cc2c(cc1C)[n+](=O)c(C(=O)C/C(=N/NC(=O)c1ccccc1O)C(=O)Nc1ccccc1C(C)C)c(C)n2[O-] | > 100 | > 100 |  | > 100 µM | > 100 µM | > 100 µM |  | 94.1 µM |  |  |  |  |  |  |  |  |  |  |  | 
COC(=O)C(c1[nH]nc2ccccc12)C(C(=O)OC)c1[nH]nc2ccccc12 (stereo not given) | > 100 | > 100 | 50.4 | 44.9 µM | > 100 µM | > 100 µM |  | > 100 µM |  |  |  |  |  |  |  |  |  |  |  | 
CC(=O)OCC1OC(O[C@@H]2C[C@H]3C(C)(C)[C@H](OC(C)=O)CC[C@]3(C)[C@H]3CCC4=C([C@@H](C)C[C@@H](O)[C@H](O)C(C)(C)O)CC[C@@]4(C)[C@@]32C)C(O)C(O)C1O (stereo not given in full) | 30.4 | 27.8 | 30.1 |  | 30 µM | 31.1 µM | 15.9 | 34.1 µM | 16.5 | 14.4 µM | 10.5 |  | 16.4 | 17.2 µM | 15.4 µM | 28.7 µM | 32.8 | 14.5 µM | 27.9 | 15.2
